Source: patent publication US9351983B2, “Use of glycerophosphoinositols for the treatment of septic shock” (CONSIGLIO NAZIONALE DELLE RICERCHE, priority 2012, dated 2016)

Legend:
[1] = system: TNFα; assay: ELISA of TNFα in medium of LPS-stimulated monocytes; type: cell-based, human; details: 300 μM
Procedure: FIG. 5—The inhibitory effects of GroPIns are also evident at the protein expression level. Purified monocytes (4×10^3 cells/sample) were pre-incubated for 20 min at 37° C. in the absence and presence of 300 μM GroPIns, and then for a further 5 h and 24 h without or with 0.1 μg/ml LPS from E. coli. At the end of this incubation, the levels of TNFα, IL-1β and TxB-2 in the medium were assessed by ELISA. In monocytes alone, the protein concentrations were under the assay detection limits at both the times. The data are representative of three independent experiments performed with cells from different donors. Exposure of monocytes to LPS induced a time-dependent increase in the […] levels of all of the cytokines analysed.
Cellular levels of TNFα, IL-1β and TxB-2 were quantified by enzyme-linked immunosorbent assay (ELISA). Conditioned medium from monocytes was sedimented by centrifugation at 300×g at room temperature for 10 min to eliminate cellular debris. Then, the supernatant was recovered and the concentrations of TNFα, IL-1β and TxB-2 were assessed by ELISA, as specified by the manufacturers (Amersham Pharmacia Biotech (NJ, USA).

[2] = system: inhibitor of kB, α (IκB-α) gene expression; assay: In vitro model of human inflammation: real-time PCR of IκB-α; type: cell-based; details: 300 μM; 4 h, 14 h, 24 h, 48 h; one donor, preliminary
Procedure: (§1) FIG. 15—Glycerophosphoinositol modulates the kinetic transcriptional profile of genes involved in the regulation of inflammatory response. Human monocytes were purified from one donor and treated according to the in vitro model of human inflammation, previously described, in absence (blue line) or in presence (red line) of 300 μM glycerophosphoinositol. In detail glycerophosphoinositol was added to cells in culture 20 minutes before LPS, IL-10 and TGF-β, that is, again after each wash. Samples were collected at time 4 h, 14 h, 24 h, 48 h; freshly isolated monocytes have been considered as control at time 0 h. Total RNA was extracted from cells by RNeasy kit (Qiagen) and reverse-transcribed to cDNA (QuantiTect Reverse Transcription kit, Qiagen). […] Each sample was measured in triplicate and data were analyzed with Pfaffl methods for comparing relative expression data. The measurement of mRNA expression was expressed as fold-increase over control (time 0 h). […]
(§2) Total RNA was extracted with RNeasy kit (Qiagen) according to the manufacturer's instructions. Both integrity and quality of total RNA were checked by agarose gel electrophoresis and the concentration of each RNA sample was assessed spectrophotometrically. Total RNAs were reverse-transcribed to cDNA (QuantiTect Reverse Transcription kit, Qiagen) with oligo-dT and random primers, according to manufacturer's protocol. […]

[3] = system: interleukin-1 receptor II (IL-1RII) gene expression; assay: In vitro model of human inflammation: real-time PCR of IL-1RII; type: cell-based; details: 300 μM; 4 h, 14 h, 24 h, 48 h; one donor, preliminary
Procedure: as §1, §2

[4] = system: Tumor necrosis factor α (TNFα); assay: In vitro model of human inflammation: ELISA of TNFα in supernatants; type: cell-based; details: 300 μM; full inflammation (4 h and 14 h); one donor
Procedure: FIG. 16—Glycerophosphoinositol inhibits the release of cytokines. Human monocytes were purified from one donor and treated according to the in vitro model of human inflammation, previously described, in absence (blue line) or in presence (red line) of 300 μM glycerophosphoinositol. In detail, glycerophosphoinositol was added to cultured cells 20 minutes before LPS, IL-10 and TGF-β, that is, again after each wash. The growth medium was collected at time 4 h, 14 h, 24 h, 48 h; growth medium from freshly isolated monocytes was considered as control at time 0 h. The levels of cytokines Interleukin 1β (IL-1β), Tumor necrosis factor α (TNFα) and Interleukin-6 (IL-6) in the supernatants were measured by enzyme-linked immunosorbent assay (ELISA kit, R&D System) according to manufacturer's protocol. An increased release of these cytokines was observed during the full inflammation (time 4 h and 14 h) as expected. […]
Extracellular levels of IL-1β, TNFα and IL-6 were measured by enzyme-linked immunosorbent assay (ELISA) from R&D System. […] Then the recovered supernatants were loaded onto plates according to manufacturer's protocol and the concentration of the protein was assessed spectrophotometrically.

O=P(O)(OCC(O)CO)OC1C(O)C(O)C(O)C(O)C1O (centres unmarked) [GroPIns, glycerophosphoinositol]
level of TNFα in the medium ([1]; 0.1 μg/ml LPS for 5 h): very small effects
level of TNFα in the medium ([1]; 0.1 μg/ml LPS for 24 h): significantly reduced
IκB-α mRNA expression [2]: affected the expression of IκB-α
IL-1RII mRNA expression [3]: favoured the expression
amount of TNFα in the supernatants [4]: significantly reduced the amount of these cytokines in the supernatants
